Assays:
HL-60 xenograft = assay: In vivo anti-cancer efficacy, HL-60 xenograft; settings: 200 mg/kg oral gavage once daily for 15 days
Description: An in vivo anti-cancer efficacy study was performed as reported previously. Briefly, female nude BALB/c mice (6–8 weeks of age) were engrafted with HL-60 human leukaemic cells subcutaneously into the rear flanks. Before inoculation, HL-60 (5 × 10^6) cells were cultured, harvested, and re-suspended in a 1:1 mixture of serum-free media and Matrigel (BD Biosciences, NSW, Australia). Mice with 100–200 mm^3 tumour size were allocated randomly into the control or treatment group. Rilpivirine and vehicle (0.5% HPMC) were administered by oral gavage daily. Mice were checked daily for any clinical signs of toxicity, including weight loss. Tumour volume was measured every other day and was calculated as length × width × height. At the end of the study period, or if clinical endpoints were reached as determined by a clinical record sheet score of 4, body condition score of 1, weight loss of ≥15%, or tumour growth of ≥2000 mm^3, the mouse was euthanised. Data analysis was performed using GraphPad Prism software version 7.02 (La Jolla, CA, USA).

K-562 cells [1] = assay: Resazurin cell viability assay; assay type: cell-based, human; settings: Homo sapiens
Description: Cell viability was determined by a resazurin-based assay as described previously. Briefly, 5 × 10^3 cells/well were seeded into 96-well plates (Corning Inc., Corning, NY, USA) in 180 µL of RPMI 1640 medium and incubated overnight at 37 °C with 5% CO2. Next day, cells were treated with rilpivirine after serially diluted (1:2 dilution for final concentrations ranging from 0.625 µM to 40 µM) or DMSO (0.1%) for specified time periods (24, 48, or 72 h). At the end of the treatment period, 20 µL of resazurin (0.1 mg/mL in PBS) was added per well and incubated for further 4 h. Fluorescence intensities were recorded at 570 nm (excitation)/585 nm (emission) using an EnVision® multilabel plate reader (PerkinElmer, MA, USA). Drug concentrations required for cell viability reduction by 50% (GI50) compared with untreated (DMSO vehicle-treated only) control were determined by a non-linear regression model using GraphPad Prism software version 7.02 (La Jolla, CA, USA).

NB4 cells = assay: Apoptosis, annexin V/PI double staining; assay type: cell-based, human; settings: 48 h
Description: (§1) The cellular apoptosis was detected using annexin-V/PI double staining by following a method described previously. Briefly, cells were added in 6-well plates containing 3 mL of medium each well at 8 × 10^4 cells/well and incubated at 37 °C, 5% CO2. After overnight incubation, the test compounds were added to the cells and again incubated for desired time points. Then, the cells were collected in FACS tubes, washed with PBS and incubated with annexin V and PI solution for 15 min in the dark at room temperature. The apoptotic cell death was measured within 1 h using the same instrument and data processing software described for cell cycle analysis.

K-562 cells [2] = assay: Apoptosis, annexin V/PI double staining; assay type: cell-based, human; settings: 48 h
Description: as §1

HL-60 cells = assay: Apoptosis, annexin V/PI double staining; assay type: cell-based, human; settings: 48 h
Description: as §1

U-937 cells = assay: Apoptosis, annexin V/PI double staining; assay type: cell-based, human; settings: 48 h
Description: as §1

MV4-11 cells = assay: Apoptosis, annexin V/PI double staining; assay type: cell-based, human; settings: 10 or 20 μM, 48 h; FLT3-ITD mutation
Description: as §1

[3] = In vivo safety profile in HL-60 engrafted mice; design: species or system mouse; settings: 200 mg/kg orally, once daily for 14 days
Description: Female 6–7-week-old BALB/c nude mice with tumour volumes of 100–200 mm^3 were allocated to two groups (n = 3 per group) and treated with vehicle (0.5% HPMC in water) or rilpivirine (200 mg/kg) daily for 14 days. Upon 24 h post the final dose, mice were humanely killed, and blood, bone marrow, heart, kidney, intestine, liver, and stomach were collected for histopathological analysis. Blood was collected in citrate-treated tubes and a complete blood count was performed by Gribbles Veterinary Pathology (South Australia, Australia). Organs were collected in 10% neutral buffered formalin and stained with hematoxylin and eosin externally by the Hanson Histology Services (South Australia, Australia), while histopathologic analysis was performed by a board-certified pathologist.

[4] = system: Aurora A kinase signalling pathway proteins in HL-60 and NB4 cells; assay: Western blotting, concentration series; assay type: cell-based, human; settings: 24 h
Description: Western blotting was performed following a method described previously. Briefly, 8 × 10^5 to 1 × 10^6 cells were seeded in petri dishes with 8 to 10 mL of culture medium and incubated overnight at 37 °C, 5% CO2. Then, the cells were treated with the test compounds and further incubated for the specified time point. Cells were then lysed using a lysis buffer containing protease inhibitors, and proteins were extracted by centrifugation. Protein concentrations were determined by using a Bio-Rad DC^TM protein assay kit (Bio-Rad Laboratories, Hercules, CA, USA). A total of 20–30 μg of proteins was loaded onto each well of 4–20% polyacrylamide gels for electrophoresis. Once electrophoresis was completed, gels were placed on pre-soaked polyvinylidene difluoride membranes and blocked with 10% skimmed milk in 1 × Tris-buffered saline and Tween (TBST). Then, the blots were incubated with primary antibodies, followed by washing with TBST for 4 × 20 min. After this, the blots were incubated with the appropriate horseradish peroxidase (HRP)-conjugated secondary antibody, followed by washing again with TBST for 4 × 20 min. The protein bands were then detected with either ECL prime (Amersham^TM ECL^TM prime Western blotting detection reagent) or ECL select (Amersham^TM ECL^TM select Western blotting detection reagent) depending on the abundance of the protein of interest. The blots were imaged using the Bio-Rad ChemiDoc^TM MP imaging system (Bio-Rad Laboratories, Hercules, CA, USA). All the primary and secondary antibodies used in this study were purchased from Cell Signaling Technology (Danvers, MA, USA).

Cc1cc(/C=C/C#N)cc(C)c1Nc1ccnc(Nc2ccc(C#N)cc2)n1 [rilpivirine, (E)-4-((4-((4-(2-cyanoethenyl)-2,6-dimethylphenyl)amino)pyrimidin-2-yl)amino)benzonitrile]
day from which reduction in tumour growth was statistically significant (p < 0.001) (HL-60 xenograft): ≥ 11 days
signs of toxicity or weight loss during treatment (HL-60 xenograft): did not cause any apparent signs of toxicity or weight loss
tumour growth compared with vehicle-treated group (HL-60 xenograft): noticeable delay in tumour growth
GI50 (K-562 cells [1]; K562, 24 h): 12.4 ± 2.16 µM
GI50 (K-562 cells [1]; K562, 48 h): 8.43 ± 0.37 µM
GI50 (K-562 cells [1]; K562, 72 h): 7.36 ± 0.24 µM
apoptotic cells (early and late apoptosis) (NB4 cells; 5 µM): 31.62%
apoptotic cells (early and late apoptosis) (NB4 cells; 10 µM): 87.04%
apoptotic cells (early and late apoptosis) (NB4 cells; 20 µM): 98.9%
apoptotic cells (early and late apoptosis) (K-562 cells [2]; 5 µM): 15.06%
apoptotic cells (early and late apoptosis) (K-562 cells [2]; 10 µM): 31.88%
apoptotic cells (early and late apoptosis) (K-562 cells [2]; 20 µM): 38.21%
apoptotic cells (early and late apoptosis) (HL-60 cells; 5 µM): 6.94%
apoptotic cells (early and late apoptosis) (HL-60 cells; 10 µM): 48.73%
apoptotic cells (early and late apoptosis) (HL-60 cells; 20 µM): 67.32%
apoptotic cells (early and late apoptosis) (U-937 cells; 5 µM): 20.68%
apoptotic cells (early and late apoptosis) (U-937 cells; 10 µM): 29.58%
apoptotic cells (early and late apoptosis) (U-937 cells; 20 µM): 39.47%
apoptosis induction (MV4-11 cells): induced significant apoptosis
complete blood count (red blood cells, neutrophils, lymphocytes, platelets) [3]: did not show any noticeable effects
histopathology of major organs [3]: did not cause any tissue damage in major organs
CDK1 level [4]: reduced
Cdc25C (Ser198) phosphorylation [4]: inhibited
PARP and caspase 3 cleavage [4]: increased
Plk1 (Thr210) phosphorylation [4]: inhibited
anti-apoptotic protein Mcl-1 [4]: down-regulation
cyclin B1 level [4]: reduced
phospho-Histone H3 (Ser10) [4]: induced
phosphorylation of CENP (Ser7) [4]: inhibited
total Aurora A [4]: without affecting
auto-phosphorylation of Aurora A at Thr288 ([4]; concentration-dependent): suppressed

Source: PMC9954146, “Anti-Leukaemic Activity of Rilpivirine Is Mediated by Aurora A Kinase Inhibition” (Cancers, 2023)
